Data taken from patent US20050221328A1, “Inhibitors of inflammatory gene activity and cholesterol biosynthesis” (Wyeth, priority 2002, published 2005).
One block for each compound: values may come before it.

Tests used:
[1] = test system: HepG2 cells; assay: Gene expression in HepG2 cells treated 24 hr with CDCA or GW 4064; format: cell-based, human; settings: HepG2, 24 hr
Method: HepG2 cells were maintained in growth media at 37° C. in a 5% CO2 incubator. The cells were seeded in deficient growth media (phenol red free DMEM (Gibco BRL) supplemented with heat-inactivated 10% FBS, 1% Glutamax, 1% MEM non-essential amino acids, 100 U/ml penicillin and 100 μg/ml streptomycin) at 4-5×10^5 cells per well in a 6 well dish (Falcon). The cells were then placed into serum deficient media for 24 hr before addition of the compounds for an additional 24 hrs. The cells were then harvested for RNA analysis.
To further investigate the possibility that bile acid signaling through FXR can promote inflammatory gene expression, experiments were conducted in the hepatocyte cell line, HepG2. […] HepG2 cells express a number of inflammatory genes including ICAM-1 and M-CSF constitutively (Stonans et al '99 Cytokine 11:151). […] As positive controls, the induction of SHP mRNA and the repression of cyp7a were confirmed.
Referring to FIG. 24a-b, HepG2 cells were treated for 24 hr with increasing concentrations of chenodeoxycholic acid (CDCA). […] Data are reported as mean±SEM for each group. C57BL/6 mice. […] Data are reported as mean±SEM for each group.

[2] = test system: human SHP promoter; assay: hSHP promoter luciferase reporter in HepG2 or 293 cells cotransfected with human ERα; format: cell-based; settings: 293 cells with human ERα; for SHP promoter activity, compound alone: 10 nM E2 or 1 uM compound, 24 hours
Method: Referring to FIGS. 11a and 11b, ERα regulation of hSHP promoter activity in human cells was examined. Human HepG2 or 293 cells were cotransfected with a control SV40 driven β-galactosidase plasmid, a luceriferase plasmid driven by 1.4 kb of the human SHP promoter, and an expression plasmid encoding either no protein or human ERα. […] Cell extracts were then analyzed for luciferase activity normalized for β-galactosidase activity.
Referring to FIGS. 12a, 12b, and 12c, ERα regulation of hSHP promoter activity in 293 cells was examined. Referring to FIGS. 12a and 12b, 293 cells were cotransfected with a control SV4O driven […] plasmid, a luceriferase plasmid driven by either 1.4 kb of the human SHP promoter or a synthetic 2×ERE/TK promoter, and an expression plasmid for human ERα. […] Cell extracts were then analyzed for luciferase activity with normalization for β-galaetosidase activity.

[3] = test system: SHP; assay: Regulation of SHP expression in mouse liver, six weeks treatment, real time PCR; format: in vivo
Method: Several experiments were conducted to investigate the regulation of SHP expression, as follows. Referring to FIG. 9, ERα regulation of SHP expression in mouse liver was studied. […] Liver expression of SHP was monitored by real time PCR, with normalization for GAPDH expression. […] ICI182780 inhibited this induction.

[4] = test system: Fnk, JAB, LIX, bcl-3 and SHP; assay: Liver expression of Fnk, JAB, LIX, bcl-3 and SHP by realtime PCR after estrogen receptor ligand pretreatment and IL-1β; settings: mice; 100 ug/kg/day EE, 1 or 10 mg/kg/day E2, 30 mg/kg/day genistein, 5 mg/kg/day raloxifene, 10 mg/kg/day ICI182780; plus IL-1β
Method: Referring to FIG. 3a, to distinguish these two mechanisms, the IL-1β fold induction of Fnk, JAB, LIX, and bcl-3 and the IL-1β fold repression of SHP was quantified in animals pretreated with vehicle (black bars) or 100 ug/kg/day EE (grey bars). Liver RNA levels of each gene (mean +/−SEM) were determined by realtime PCR of RNA from each individual animal.
Referring to FIGS. 4a, 4b, 4c, 4d and 4e, experiments were conducted to determine whether EE blocks IL-1β induction of gene expression by an estrogen receptor (ER) dependent mechanism. Estrogens can regulate gene expression by many mechanisms including ER independent pathways such as antioxidant mechanisms. […] Liver expression levels of Fnk, JAB, LIX, bcl-3 and SHP (mean +/−SEM) were determined by realtime PCR.
Referring to FIGS. 5a, 5b, 5c, 5d, and 5e, experiments were conducted to determine whether ERα is required for EE regulation of gene expression in the liver. To determine whether ERα or ERβ mediated the EE effects on IL-1β gene expression in the liver, C57BL/6 wild type mice, C57BL/6 ERαKO mice, or 129 ERβKO mice were pretreated with vehicle (black bars) or […] EE (gray bars) for 5 days followed by a 1 hour treatment with IL-1β. Liver expression levels of Fnk, JAB, LIX, bcl-3, and SHP (mean +/−SEM) were quantified by realtime PCR, with expression in animals receiving vehicle+PBS defined as 1.0.

[5] = test system: hepatic inflammatory gene expression
Method: Ovariectornized C57BL/6 mice (16-20g) (Taconic) were separated into groups of 8. After 5-7 days of recuperation, the mice were fed a casein based diet (#8117, Test Diet, Richmond, IN) for five days. […] At the end of the experimental period, the liver was collected for RNA analysis.
Liver total RNA was prepared using Trizol reagent (BRL) and quantitated by real time RT-PCR using an ABI PRISM 7700 Detection System according to the manufacturer's protocol (Applied Biosystem). The data was analyzed using the Sequence Dector v1.7 software (Applied Biosystems) and normalized to GAPDH using Applied Biosystems primer set.
Feeding C57BL/6 mice a high fat diet containing cholate has been shown previously to induce inflammatory gene expression in the mouse liver after 3-5 weeks (Liao et al '93 JCI 91:2572, Evans et al. '01 Circ Res 89:823 & Miyake et al '00 JBC 275:21805).
To determine whether signaling via FXR was necessary to result in inflammatory gene expression, 1% UDCA was supplemented into the chow diet.
In particular, referring to FIG. 21a-d, C57BL/6 mice were fed either a chow, atherogenic or high fat diet (atherogenic diet without sodium cholate) as indicated. After 5 weeks, hepatic mRNA levels of the indicated genes were determined by real time PCR. […] After 5 days, hepatic mRNA levels of the indicated genes were determined by real time PCR. Data are reported as mean±SEM for each group. Referring to FIG. 23a-b: C57BL/6 mice were fed a chow diet supplemented with 1% ursodeoxycholic acid (UDCA). After 5 days, hepatic mRNA levels of the indicated genes were determined by real time PCR. […] Data are reported as mean±SEM for each group.

[6] = CDCA 1-100 uM or GW 4064 1-1000 nM
[7] = C57BL/6 mice, chow with CA 0.01-1.0%, 5 days

cyp7a expression ([1]; positive control): repression
SMILES: C[C@H](CCC(=O)O)[C@H]1CC[C@H]2[C@@H]3[C@H](O)C[C@@H]4C[C@H](O)CC[C@]4(C)[C@H]3CC[C@]12C [CDCA, chenodeoxycholic acid]
ICAM-1 expression [1, 6]: induced in a dose dependent manner
M-CSF expression [1, 6]: induced in a dose dependent manner
SHP mRNA ([1]; positive control): induction

SMILES: C[C@]12CC[C@@H]3c4ccc(O)cc4C[C@@H](CCCCCCCCC[S+]([O-])CCCC(F)(F)C(F)(F)F)[C@H]3[C@@H]1CC[C@@H]2O (stereo partly drawn) [ICI-182780]
SHP promoter activity, compound alone [2]: inactive alone
effect on E2 activity at SHP promoter ([2]; 1 uM compound plus 10 nM E2): antagonized
effect on E2 induction of liver SHP mRNA ([3]; WT mice, 10 ug/kg/day E2+5 mg/kg/day ICI182780, six weeks): inhibited
effect on regulation of liver Fnk, JAB, LIX, bcl-3 and SHP expression vs IL-1β alone [4]: no effect

cyp3a expression ([5]; mouse, in vivo): induced
cyp7a expression ([5]; mouse, in vivo): repress
SMILES: C[C@H](CCC(=O)O)[C@H]1CC[C@H]2[C@@H]3[C@@H](O)C[C@@H]4C[C@H](O)CC[C@]4(C)[C@H]3CC[C@]12C [UDCA, ursodeoxycholic acid]

SMILES: CC/C(=C(\c1ccccc1)c1ccc(OCCN(C)C)cc1)c1ccccc1 [tamoxifen]
SHP promoter activity, compound alone [2]: stimulated
liver SHP mRNA levels, WT animals ([3]; ovariectomized wildtype mice, sc six weeks, 10 ug/kg/day E2, 5 mg/kg/day tamoxifen, 5 mg/kg/day PPT): induced

SMILES: C[C@H](CCC(=O)O)[C@H]1CC[C@H]2[C@@H]3[C@H](O)C[C@@H]4C[C@H](O)CC[C@]4(C)[C@H]3C[C@H](O)[C@]12C [CA, cholic acid]
hepatic ICAM-1 mRNA [5, 7]: dose dependent induction
induction of hepatic RANTES mRNA [5, 7]: 1.75 fold
induction of hepatic TNFα mRNA [5, 7]: 4 fold
induction of hepatic VCAM-1 mRNA [5, 7]: 3 fold
CA supplementation sufficient to induce inflammatory gene expression ([5]; chow fed mice, acute exposure): 0.3%
induction of hepatic SHP expression ([5]; mice fed 1% CA or UDCA, 5 days): only observed with CA
